According to patent US20250041461A1, “[177LU] LUTETIUM-PSMA I&T COMPOSITION AND DOSIMETRY, KIT, METHOD OF MAKING, AND METHOD OF USING THEREOF” (Curium US LLC, priority 2023, published 2025):
Read-outs that look alike come from different tables or passages of the source.

What was measured:
[1] = cited from earlier work
[2] = Example 10 dosimetry, 27 mCRPC patients, planar whole-body conjugate imaging and SPECT/CT, MIRD method; assay type: in vivo, human
Protocol: Radiation dosimetry of [^177Lu]Lu-PSMA-I&T was calculated in 27 patients with mCRPC based on biodistribution data from planar whole-body conjugate imaging at 1, 24, 48, 72, and 168 hours and, for 7 of them, SPECT/CT imaging at 48-72 hours post injection of their first cycle of [^177Lu]Lu-PSMA-I&T (6.8±10% GBq).
Regions of interest were drawn on the planar images.
Volumes of interest were constructed on the SPECT and CT
For each subject, kinetic data were modeled to determine
normalized number of disintegrations in organs and tissues, from which the absorbed dose estimates were computed using the MIRD method.

[3] = 27 patients, first cycle, 6.8 GBq, planar imaging
[4] = Bladder Wall, 27 patients, first cycle
[5] = Heart Wall, 27 patients, first cycle
[6] = Kidneys, 27 patients, first cycle
[7] = Lacrimal Glands, 27 patients, first cycle
[8] = Left Colon, 27 patients, first cycle
[9] = Liver, 27 patients, first cycle
[10] = Red Marrow, 27 patients, first cycle
[11] = Salivary Glands, 27 patients, first cycle
[12] = Spleen, 27 patients, first cycle
[13] = Thyroid, 27 patients, first cycle
[14] = cumulative administered activity of 27.2 GBq, four cycles of 6.8 GBq

O=C([O-])CC[C@H](NC(=O)N[C@@H](CCCCNC(=O)CCCCCCC(=O)NCCCC[C@@H](NC(=O)[C@@H](Cc1ccccc1)NC(=O)[C@@H](Cc1ccc(O)c(I)c1)NC(=O)CC[C@H](C(=O)[O-])N1CCN(CC(=O)[O-])CCN(CC(=O)[O-])CCN(CC(=O)[O-])CC1)C(=O)[O-])C(=O)[O-])C(=O)[O-].[177Lu+3].[H+].[H+].[H+].[H+].[H+] [^177Lu-PSMA I&T, (3S,7S,26R,29R,32R,37R)-29-benzyl-32-(4-hydroxy-3-iodobenzyl)-5,13,20,28,31,34-hexaoxo-37-(4,7,10-tris(carboxymethyl)-1,4,7,10-tetraazacyclododecan-1-yl)-4,6,12,21,27,30,33-heptaazaheptatriacontane-1,3,7,26,37-pentacarboxylic acid; lutetium-177 (III)]
Absorbed Dose, Submandibular glands, Range ([1]; Second cycle): 0.40-1.70 Gy/GBq
Effective Dose, Whole body, Mean ± SD ([1]; Second cycle): 0.06 Sv/GBq
Effective Dose, Whole body, Range ([1]; Second cycle): 0.03-0.11 Sv/GBq
Absorbed Dose for Tumor Lesions, Lung metastases, Mean ± SD ([1]; Third cycle, n 1): 0.94 Gy/GBq
Absorbed Dose for Tumor Lesions, Lymph node metastases, Mean ± SD ([1]; Third cycle, n 1): 2.6 Gy/GBq
Absorbed Dose for Tumor Lesions, Lymph node metastases, Range ([1]; Third cycle, n 1): 18.87 Gy/GBq
Absorbed Dose for Tumor Lesions, Liver metastases, Mean ± SD ([1]; Third cycle, n 2): 0.95 Gy/GBq
Absorbed Dose for Tumor Lesions, Liver metastases, Range ([1]; Third cycle, n 2): 0.47-1.42 Gy/GBq
Absorbed Dose for Tumor Lesions, Bone metastases, Mean ± SD ([1]; Third cycle, n 10): 3.2 ± 2.5 Gy/GBq
Absorbed Dose for Tumor Lesions, Bone metastases, Range ([1]; Third cycle, n 10): 1.11-7.99 Gy/GBq
Absorbed Dose for Tumor Lesions, All metastases, Mean ± SD ([1]; Third cycle, n 14): 2.7 ± 2.3 Gy/GBq
Absorbed Dose for Tumor Lesions, All metastases, Range ([1]; Third cycle, n 14): 0.94-7.99 Gy/GBq
Absorbed Dose, Kidneys, Mean ± SD ([1]; Third cycle): 0.73 ± 0.22 Gy/GBq
Absorbed Dose, Kidneys, Range ([1]; Third cycle): 0.42-0.93 Gy/GBq
Absorbed Dose, Lacrimal glands, Mean ± SD ([1]; Third cycle): 3.5 ± 1.4 Gy/GBq
Absorbed Dose, Lacrimal glands, Range ([1]; Third cycle): 2.41-5.04 Gy/GBq
Absorbed Dose, Liver, Mean ± SD ([1]; Third cycle): 0.12 ± 0.06 Gy/GBq
Absorbed Dose, Liver, Range ([1]; Third cycle): 0.07-0.21 Gy/GBq
Absorbed Dose, Parotid glands, Mean ± SD ([1]; Third cycle): 0.49 Gy/GBq
Absorbed Dose, Parotid glands, Range ([1]; Third cycle): 0.32-0.64 Gy/GBq
Absorbed Dose, Submandibular glands, Mean ± SD ([1]; Third cycle): 0.83 ± 0.59 Gy/GBq
Absorbed Dose, Submandibular glands, Range ([1]; Third cycle): 0.33-1.68 Gy/GBq
Effective Dose, Whole body, Mean ± SD ([1]; Third cycle): 0.06 Sv/GBq
Effective Dose, Whole body, Range ([1]; Third cycle): 0.03-0.10 Sv/GBq
mean whole-body effective dose ([1]; all cycles): 0.41±0.18 Sv
mean whole-body effective dose per GBq ([1]; all cycles): 0.06 Sv/GBq
absorbed dose, kidneys [2, 3]: 0.73 Gy/GBq
absorbed dose, lacrimal glands [2, 3]: 1.2 Gy/GBq
average dose, red marrow [2, 3]: 0.034 Gy/GBq
average dose, salivary glands [2, 3]: 0.34 Gy/GBq
dose estimate, Max [2, 4]: 0.36 mGy/MBq or Gy/GBq
dose estimate, Mean [2, 4]: 0.33 mGy/MBq or Gy/GBq
dose estimate, Min [2, 4]: 0.14 mGy/MBq or Gy/GBq
Absorbed Dose, Mean ([2]; Bladder, SPLASH): 0.33 Gy/GBq
Absorbed Dose, Mean ([2]; Bone Marrow, SPLASH): 0.034 Gy/GBq
dose estimate, Max [2, 5]: 0.15 mGy/MBq or Gy/GBq
dose estimate, Mean [2, 5]: 0.036 mGy/MBq or Gy/GBq
dose estimate, Min [2, 5]: 0.017 mGy/MBq or Gy/GBq
dose estimate, Mean ([2]; Heart Wall, Splash): 0.04 Gy/GBq
Absorbed Dose, Mean ([2]; Heart, SPLASH): 0.036 Gy/GBq
dose estimate, Max [2, 6]: 1.8 mGy/MBq or Gy/GBq
dose estimate, Mean [2, 6]: 0.73 mGy/MBq or Gy/GBq
dose estimate, Min [2, 6]: 0.22 mGy/MBq or Gy/GBq
Absorbed Dose, Mean ([2]; Kidneys, Splash): 0.73 Gy/GBq
dose estimate, Mean ([2]; Kidneys, Splash): 0.73 Gy/GBq
dose estimate, Max [2, 7]: 6.7 mGy/MBq or Gy/GBq
dose estimate, Mean [2, 7]: 1.2 mGy/MBq or Gy/GBq
dose estimate, Min [2, 7]: 0.38 mGy/MBq or Gy/GBq
Absorbed Dose, Mean ([2]; Lacrimal Glands, SPLASH): 1.2 Gy/GBq
dose estimate, Mean ([2]; Lacrimal gland, Splash): 1.20 Gy/GBq
dose estimate, Max [2, 8]: 1.5 mGy/MBq or Gy/GBq
dose estimate, Mean [2, 8]: 0.52 mGy/MBq or Gy/GBq
dose estimate, Min [2, 8]: 0.013 mGy/MBq or Gy/GBq
Absorbed Dose, Mean ([2]; Left colon, Splash): 0.52 Gy/GBq
dose estimate, Mean ([2]; Left colon, Splash): 0.52 Gy/GBq
dose estimate, Max [2, 9]: 0.24 mGy/MBq or Gy/GBq
dose estimate, Mean [2, 9]: 0.051 mGy/MBq or Gy/GBq
dose estimate, Min [2, 9]: 0.025 mGy/MBq or Gy/GBq
Absorbed Dose, Mean ([2]; Liver, Splash): 0.051 Gy/GBq
dose estimate, Mean ([2]; Liver, Splash): 0.051 Gy/GBq
dose estimate, Max [2, 10]: 0.11 mGy/MBq or Gy/GBq
dose estimate, Mean [2, 10]: 0.034 mGy/MBq or Gy/GBq
dose estimate, Min [2, 10]: 0.014 mGy/MBq or Gy/GBq
dose estimate, Mean ([2]; Red Marrow, Splash): 0.03 Gy/GBq
dose estimate, Max [2, 11]: 1.5 mGy/MBq or Gy/GBq
dose estimate, Mean [2, 11]: 0.34 mGy/MBq or Gy/GBq
dose estimate, Min [2, 11]: 0.14 mGy/MBq or Gy/GBq
Absorbed Dose, Mean ([2]; Salivary glands, Splash): 0.34 Gy/GBq
dose estimate, Mean ([2]; Salivary glands, Splash): 0.34 Gy/GBq
dose estimate, Max [2, 12]: 0.80 mGy/MBq or Gy/GBq
dose estimate, Mean [2, 12]: 0.16 mGy/MBq or Gy/GBq
dose estimate, Min [2, 12]: 0.022 mGy/MBq or Gy/GBq
Absorbed Dose, Mean ([2]; Spleen, Splash): 0.16 Gy/GBq
dose estimate, Mean ([2]; Spleen, Splash): 0.16 Gy/GBq
dose estimate, Max [2, 13]: 0.77 mGy/MBq or Gy/GBq
dose estimate, Mean [2, 13]: 0.17 mGy/MBq or Gy/GBq
dose estimate, Min [2, 13]: 0.011 mGy/MBq or Gy/GBq
Absorbed Dose, Mean ([2]; Thyroid, Splash): 0.17 Gy/GBq
dose estimate, Mean ([2]; Thyroid, Splash): 0.17 Gy/GBq
dose estimate, Mean ([2]; Urinary bladder wall, Splash): 0.33 Gy/GBq
cumulative absorbed dose, kidneys [2, 14]: 19.9 Gy
cumulative absorbed dose, red marrow [2, 14]: 0.91 Gy
